pIC50: −log10 of the molar value.
Assays:
[1] = target: T1, Human Glucocorticoid Receptor (Homo sapiens, UniProt P04150); assay: Competition Binding in IM-9 Human Glucocorticoid Receptor (GR IM-9); details: cytosol from IM-9 cell line, 1.5 nM [3H]-Dexamethasone, 4° C. for 6 hours
T1 construct: endogenous in cells; host or cells: cytosol from IM-9 cell line
T1 sequence (P04150 1-777): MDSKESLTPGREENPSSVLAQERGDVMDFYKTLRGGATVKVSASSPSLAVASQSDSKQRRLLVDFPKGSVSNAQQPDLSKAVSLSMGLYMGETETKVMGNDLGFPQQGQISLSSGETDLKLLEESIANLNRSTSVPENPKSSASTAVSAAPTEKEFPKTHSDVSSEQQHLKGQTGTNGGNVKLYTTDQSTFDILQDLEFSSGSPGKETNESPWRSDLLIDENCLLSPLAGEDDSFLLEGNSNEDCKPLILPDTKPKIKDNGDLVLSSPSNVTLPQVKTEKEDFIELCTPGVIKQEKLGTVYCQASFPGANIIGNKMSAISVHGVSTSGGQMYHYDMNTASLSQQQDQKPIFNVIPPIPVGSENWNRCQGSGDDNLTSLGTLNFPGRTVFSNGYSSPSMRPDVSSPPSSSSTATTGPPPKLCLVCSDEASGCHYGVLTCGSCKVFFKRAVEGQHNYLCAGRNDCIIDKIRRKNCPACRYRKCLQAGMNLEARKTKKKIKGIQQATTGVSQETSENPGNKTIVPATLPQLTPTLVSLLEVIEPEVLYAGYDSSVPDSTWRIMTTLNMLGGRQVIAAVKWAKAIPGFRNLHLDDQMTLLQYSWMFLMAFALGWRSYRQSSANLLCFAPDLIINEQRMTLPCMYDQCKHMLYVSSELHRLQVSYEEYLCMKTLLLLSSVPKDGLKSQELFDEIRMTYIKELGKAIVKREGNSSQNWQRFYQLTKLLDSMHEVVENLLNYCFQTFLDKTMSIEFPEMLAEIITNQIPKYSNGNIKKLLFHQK
Summary of the method: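 Radioligand competition using 100 μg IM-9 cell cytosol and 1.5 nM [3H]-dexamethasone, incubated 6 h at 4° C in TES/molybdate buffer, pH 7.4. Filtration on PEI-treated GF/B filters, scintillation counting; nonspecific binding defined with 10 μM triamcinolone.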

human androgen receptor = target: T2, human androgen receptor (Homo sapiens, UniProt P10275, T878A); assay: Human Androgen Receptor Binding (radioligand binding, LnCap prostate cancer cell line); details: LnCap cells, displacement of [^3H]-methyltrienolone, 2 hours at 37° C.; read-out: AR LNCaP
T2 construct: endogenously expressed human androgen receptor using the LnCap prostate cancer cell line; endogenous in cells; host or cells: LNCaP prostate cancer cell line (whole cells)
T2 sequence (P10275 1-920 T878A): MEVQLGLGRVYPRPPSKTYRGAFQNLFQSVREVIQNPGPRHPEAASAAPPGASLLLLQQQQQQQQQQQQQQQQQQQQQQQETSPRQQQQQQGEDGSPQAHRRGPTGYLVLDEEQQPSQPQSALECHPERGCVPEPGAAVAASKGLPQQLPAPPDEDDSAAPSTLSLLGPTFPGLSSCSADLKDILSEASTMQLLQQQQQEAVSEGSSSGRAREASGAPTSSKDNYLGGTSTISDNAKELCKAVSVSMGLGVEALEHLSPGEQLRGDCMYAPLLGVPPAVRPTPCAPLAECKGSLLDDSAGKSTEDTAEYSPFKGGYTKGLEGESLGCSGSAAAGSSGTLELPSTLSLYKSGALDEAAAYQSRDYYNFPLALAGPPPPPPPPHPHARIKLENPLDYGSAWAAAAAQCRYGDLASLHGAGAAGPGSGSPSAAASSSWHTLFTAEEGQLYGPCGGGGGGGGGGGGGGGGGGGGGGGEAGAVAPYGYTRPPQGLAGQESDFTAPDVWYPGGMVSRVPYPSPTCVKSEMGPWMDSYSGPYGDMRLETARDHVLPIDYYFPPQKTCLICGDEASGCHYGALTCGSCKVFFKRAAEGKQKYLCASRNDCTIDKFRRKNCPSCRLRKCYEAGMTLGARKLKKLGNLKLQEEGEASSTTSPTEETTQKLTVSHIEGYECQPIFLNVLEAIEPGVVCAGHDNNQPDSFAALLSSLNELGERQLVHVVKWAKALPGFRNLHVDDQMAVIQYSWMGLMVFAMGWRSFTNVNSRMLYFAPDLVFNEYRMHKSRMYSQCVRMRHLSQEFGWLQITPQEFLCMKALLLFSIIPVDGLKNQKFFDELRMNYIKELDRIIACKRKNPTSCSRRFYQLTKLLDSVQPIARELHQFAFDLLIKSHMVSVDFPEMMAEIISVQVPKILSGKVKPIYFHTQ
Summary of the method: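 Whole-cell displacement of [3H]-methyltrienolone from endogenous AR (T878A) in LnCap cells, in RPMI with 0.1% BSA and triamcinolone acetonide. Compounds 10 μM to 0.1 nM in 1:10 steps, 2 h at 37 °C; cells washed, SDS-lysed, bound radioactivity by scintillation counting for IC50.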

pIC50 [1]	pIC50 (human androgen receptor)	Compound
6.00 to 7.00	≤ 6.00	CC(=O)C1=C(C)NC(C)=C(C(=O)OCc2ccccc2)C1c1csc2ccccc12 (centres unmarked) [Example B6, Benzyl 5-acetyl-4-(benzo[b]thiophen-3-yl)-2,6-dimethyl-1,4-dihydro-pyridine-3-carboxylate]
6.00 to 7.00	≤ 6.00	CC(=O)C1=C(C)NC(C)=C(C(=O)OCC2CCOCC2)C1c1csc2ccccc12 (centres unmarked) [Example C2, (Tetrahydro-2H-pyran-4-yl)methyl 5-acetyl-4-(benzo[b]thiophen-3-yl)-2,6-dimethyl-1,4-dihydropyridine-3-carboxylate]
> 7.00	> 7.00	CC(=O)C1=C(C)NC(C)=C(C(=O)OCC2CC2)C1c1csc2ncccc12 (centres unmarked) [Example C24, Cyclopropylmethyl 5-acetyl-2,6-dimethyl-4-(thieno[2,3-b]pyridin-3-yl)-1,4-dihydropyridine-3-carboxylate]
> 7.00	6.00 to 7.00	CC(=O)C1=C(C)NC(C)=C(C(=O)OC2CCCCC2)C1c1csc2ncccc12 (centres unmarked) [Example C36, Cyclohexyl 5-acetyl-2,6-dimethyl-4-(thieno[2,3-b]pyridin-3-yl)-1,4-dihydropyridine-3-carboxylate]
> 7.00	6.00 to 7.00	CC(=O)C1=C(C)NC(C)=C(C(=O)OCc2ccccc2)C1c1csc2ncccc12 (centres unmarked) [Example C39, Benzyl 5-acetyl-2,6-dimethyl-4-(thieno[2,3-b]pyridin-3-yl)-1,4-dihydropyridine-3-carboxylate]
6.00 to 7.00	≤ 6.00	CC(=O)C1=C(C)NC(C)=C(C(=O)OCc2ccccc2)C1c1csc2ccc(F)cc12 (centres unmarked) [Example C41, Benzyl 5-acetyl-4-(5-fluorobenzo[b]thiophen-3-yl)-2,6-dimethyl-1,4-dihydropyridine-3-carboxylate]
> 7.00	≤ 6.00	CC(=O)C1=C(C)NC(C)=C(C(=O)OCc2ccccc2)C1c1csc2ccc(Cl)cc12 (centres unmarked) [Example C42, Benzyl 5-acetyl-4-(5-chlorobenzo[b]thiophen-3-yl)-2,6-dimethyl-1,4-dihydropyridine-3-carboxylate]
6.00 to 7.00	≤ 6.00	CC(=O)C1=C(C)NC(C)=C(C(=O)OCC2CCOCC2)C1c1csc2ccc(Cl)cc12 (centres unmarked) [Example C43, (Tetrahydro-2H-pyran-4-yl)methyl 5-acetyl-4-(5-chlorobenzo[b]thiophen-3-yl)-2,6-dimethyl-1,4-dihydropyridine-3-carboxylate]
6.00 to 7.00	≤ 6.00	CC(=O)C1=C(C)NC(C)=C(C(=O)OCC2CCOCC2)C1c1csc2ccc(F)cc12 (centres unmarked) [Example C44, (Tetrahydro-2H-pyran-4-yl)methyl 5-acetyl-4-(5-fluorobenzo[b]thiophen-3-yl)-2,6-dimethyl-1,4-dihydropyridine-3-carboxylate]
> 7.00	6.00 to 7.00	CC(=O)C1=C(C)NC(C)=C(C(=O)OCc2ccncc2)C1c1csc2ccc(F)cc12 (centres unmarked) [Example C46, Pyridin-4-ylmethyl 5-acetyl-4-(5-fluorobenzo[b]thiophen-3-yl)-2,6-dimethyl-1,4-dihydropyridine-3-carboxylate]
6.00 to 7.00	≤ 6.00	CC(=O)C1=C(C)NC(C)=C(C(=O)OCc2cccnc2)C1c1csc2ccccc12 (centres unmarked) [Example C48, Pyridin-3-ylmethyl 5-acetyl-4-(benzo[b]thiophen-3-yl)-2,6-dimethyl-1,4-dihydropyridine-3-carboxylate]
> 7.00	> 7.00	CC(=O)C1=C(C)NC(C)=C(C(=O)OCc2cccnc2)C1c1csc2c(Br)cccc12 (centres unmarked) [Example C58, Pyridin-3-ylmethyl 5-acetyl-4-(7-bromobenzo[b]thiophen-3-yl)-2,6-dimethyl-1,4-dihydropyridine-3-carboxylate]
> 7.00	≤ 6.00	CC(=O)C1=C(C)NC(C)=C(C(=O)OCc2ccc(Br)cc2)C1c1csc2ncccc12 (centres unmarked) [Example C65, 4-bromobenzyl 5-acetyl-2,6-dimethyl-4-(thieno[2,3-b]pyridin-3-yl)-1,4-dihydropyridine-3-carboxylate]
> 7.00	6.00 to 7.00	CC(=O)C1=C(C)NC(C)=C(C(=O)OCc2cccc(Br)c2)C1c1csc2ncccc12 (centres unmarked) [Example C66, 3-bromobenzyl 5-acetyl-2,6-dimethyl-4-(thieno[2,3-b]pyridin-3-yl)-1,4-dihydropyridine-3-carboxylate]
> 7.00	> 7.00	CC(=O)C1=C(C)NC(C)=C(C(=O)OCc2ccccc2Br)C1c1csc2ncccc12 (centres unmarked) [Example C67, 2-bromobenzyl 5-acetyl-2,6-dimethyl-4-(thieno[2,3-b]pyridin-3-yl)-1,4-dihydropyridine-3-carboxylate]
> 7.00	≤ 6.00	CC(=O)C1=C(C)NC(C)=C(C(=O)OC(C)(C)c2ccccc2)C1c1csc2ncccc12 (centres unmarked) [Example C71, 2-phenylpropan-2-yl 5-acetyl-2,6-dimethyl-4-(thieno[2,3-b]pyridin-3-yl)-1,4-dihydropyridine-3-carboxylate]
> 7.00	≤ 6.00	CC(=O)C1=C(C)NC(C)=C(C(=O)OCc2cccc(C#N)c2)C1c1csc2ncccc12 (centres unmarked) [Example C72, 3-Cyanobenzyl 5-acetyl-2,6-dimethyl-4-(thieno[2,3-b]pyridin-3-yl)-1,4-dihydropyridine-3-carboxylate]
> 7.00	≤ 6.00	CC(=O)C1=C(C)NC(C)=C(C(=O)OCc2ccc(C#N)cc2)C1c1csc2ncccc12 (centres unmarked) [Example C73, 4-cyanobenzyl 5-acetyl-2,6-dimethyl-4-(thieno[2,3-b]pyridin-3-yl)-1,4-dihydropyridine-3-carboxylate]
> 7.00	6.00 to 7.00	COC(=O)C1=C(C=O)NC(C2CC2)=C(C(=O)OC)C1c1csc2c(C#N)cccc12 (centres unmarked) [Example C117, Dimethyl 4-(7-cyanobenzo[b]thiophen-3-yl)-2-cyclopropyl-6-formyl-1,4-dihydropyridine-3,5-dicarboxylate]
> 7.00	> 7.00	COC(=O)C1=C(CO)NC(C2CC2)=C(C(=O)OC)C1c1csc2c(C#N)cccc12 (centres unmarked) [Example C118, Dimethyl 4-(7-cyanobenzo[b]thiophen-3-yl)-2-cyclopropyl-6-(hydroxymethyl)-1,4-dihydropyridine-3,5-dicarboxylate]
> 7.00	≤ 6.00	COC(=O)C1=C(C)NC(C=O)=C(C(=O)OC)C1c1csc2c(C#N)cccc12 (centres unmarked) [Example C119, Dimethyl 4-(7-cyanobenzo[b]thiophen-3-yl)-2-formyl-6-methyl-1,4-dihydropyridine-3,5-dicarboxylate]
> 7.00	6.00 to 7.00	CC1=C(C#N)C(c2csc3c(C#N)cccc23)C(C(=O)OCC2CC2)=C(N)N1 (centres unmarked) [Example D24, cyclopropylmethyl 2-amino-5-cyano-4-(7-cyanobenzo[b]thiophen-3-yl)-6-methyl-1,4-dihydropyridine-3-carboxylate]

From patent US11453660B2, “Androgen receptor and glucocorticoid receptor modulators” (ONCOSTELLAE, S.L., priority 2017, dated 2022)
